Experimental findings from patent publication US10689458B2, “Site specific HER2 antibody drug conjugates” (Pfizer Inc., priority 2015, dated 2020) are described below.

Entries after “also recorded” stand apart in the source; their conditions may differ. Like-named read-outs stand apart in the source and are kept apart here. Square brackets hold non-standard residues; d marks the D form. Peptide text beside a SMILES is read from it. * marks the point of attachment. Dolaproine = CO[C@@H]([C@@H]1CCCN1)[C@@H](C)C(=O)O; Dil = CC[C@H](C)[C@H](NC)[C@@H](CC(=O)O)OC; Doe = c1ccc(C[C@H](N*)c2nccs2)cc1; Aib = CC(C)(N)C(=O)O

One assay relates to parental N87 cells. Briefly: Cytotoxicity on parental N87 cells (CellTiter Glo, 96 hours). Conditions: free payload, N87 cell line, read-out: Sensitivity to free payload (IC50), N87. Format: cell-based. The protocol:
(§1) Cells were incubated for 96 hours in a humidified 37° C./5% CO2 incubator.

The subject of assay [1] is T-DM1 resistant cells (N87-TDM). Kind of assay: Cytotoxicity on cells relapsed from T-DM1 treatment in vivo (CellTiter Glo, 96 hours). The following applies: for IC50: 96 h; for sensitivity of cells relapsed from T-DM1 treatment (in words): compared to parental N87. In kind it is cell-based. The protocol:
as §1

The next assay has as its system N87-TM cells. Briefly: Cytotoxicity on T-DM1 resistant cells made in vitro, population not specified (MTS, 4 days). Format: cell-based. Conditions: N87-TM versus N87-parental. As for the experimental part:
(§2) N87 cells were passaged into two separate flasks and each flask was treated identically with respect to the resistance-generation protocol to enable biological duplicates. […] The procedure was intended to simulate the chronic, multi-cycle (on/off) dosing at maximally tolerated doses typically used for cytotoxic therapeutics in the clinic, followed by a recovery period. […] Data were collected from various thawed cryopreserved populations derived from a single selection, over approximately 1-2 years after model development to ensure consistency in the results.
(§3) ADCs were prepared as indicated in Example 3. Unconjugated maytansine analog (DM1) and auristatin analogs were prepared by Pfizer Worldwide Medicinal Chemistry (Groton, Conn.). Other standard-of-care chemotherapeutics were purchased from Sigma (St. Louis, Mo.). Cells were seeded in 96-well plates at low density, then treated the following day with ADCs and unconjugated payloads at 3-fold serial dilutions at 10 concentrations in duplicate. Cells were incubated for 4 days in a humidified 37° C./5% CO2 incubator. The plates were harvested by incubating with CellTiter® 96 AQueous One MTS Solution (Promega, Madison, Wis.) for 1.5 hours and absorbance measured on a Victor plate reader (Perkin-Elmer, Waltham, Mass.) at wavelength 490 nm. IC50 values were calculated using a four-parameter logistic model with XLfit (IDBS, Bridgewater, N.J.).

A further assay deals with N87 cells. The following applies: read-out: IC80, payload concentration, approximate. The protocol: as §2, §3
Assay [2] deals with GA0044 patient-derived xenografts. Briefly: GA0044 patient-derived gastric cancer xenograft model. In kind it is in vivo, mouse. The following applies: IV Q4dx4, dose not stated.
The test system of the next assay is N87 tumors. Kind of assay: In vivo efficacy on parental N87 tumors in NSG mice. On the set-up: species or system mouse. The following applies: 6 and 10 mg/kg, Q4Dx4, N87 model.
Assay [3] concerns N87 cell line xenograft tumors. Kind of assay: Bystander effect, immunohistochemistry (human IgG, pHH3) of N87 xenograft tumors. Format: in vivo, mouse. Conditions: single dose, T-DM1 6 mg/kg or T-vc0101 3 mg/kg, 96 hours.
Source text: Tumor sections were stained for human IgG to detect ADC bound to tumor cells and phospho-histone H3 (pHH3) to detect mitotic cells as a readout of the proposed mechanism of action for the payloads of both ADCs.
For another assay, the system named is N87 gastric xenografts. Briefly: N87 gastric xenograft model. In kind it is in vivo, mouse. Conditions: IV Q4dx4.
For the next assay, the system named is N87 xenografts. Kind of assay: T-DM1 resistance generated in vivo in N87 xenografts and follow-on treatment. On the set-up: species or system mouse. The following applies: […] weekly, n=20.
For assay [4], the system named is 144580 breast patient-derived xenografts. The following applies: all doses tested (1, 5, 3 and 6 mg/kg), IV Q4dx4.
Procedure: (§4) For each model described below the first dose was given on Day 1. The tumors were measured at least once a week and their volume was calculated with the formula: tumor volume (mm^3)=0.5× (tumor width^2)(tumor length). The mean tumor volumes (±S.E.M.) for each treatment group were calculated having a maximum of 8-10 animals and a minimum of 6-8 animals to be included.
The 144580 breast patient-derived xenografts were subcutaneously passaged in vivo as fragments from animal to animal in nude (Nu/Nu) female mice. When the tumors reached a volume of 150 to 300 mm^3, they were staged to ensure uniformity of the tumor size among various treatment groups.
Assay [5] has as its system Her2-expressing cell lines BT474 and SKBR3. Briefly: ADCC assay (LDH release, NK-92 or human PBMC effector cells). The following applies: 1 μg/ml antibody or ADC, 6 hours. Format: cell-based.
Procedure: In ADCC assays, Her2-expressing cell lines BT474 and SKBR3 were used as target cells while NK-92 cells (an interleukin-2 dependent natural killer cell line derived from peripheral blood mononuclear cells from a person by Conkwest) or human peripheral blood mononucleocytes (PBMC) isolated from the freshly drawn blood from a healthy donor (#179) were used as effector cells.
Target cells (BT474 or SKBR3) of 1×10^4 cells/100 μl/well were placed in 96-well plate and cultured overnight in RPMI1640 media at 37° C./5% CO2. […]
Assay plates were incubated at 37° C./5% CO2 for 6 hours and then equilibrated to room temperature. LDH release from cell lysis was measured using CytoTox-One™ reagent at an excitation wavelength of 560 nm and an emission wavelength of 590 nm. […]
“Experimental” corresponds to the signal measured in one of the condition described above.
“Effector spontaneous” corresponds to the signal measured in the presence of PBMC alone.
“Target spontaneous” corresponds to the signal measured in the presence of target cells alone.
“Target Maximum” corresponds to the signal measured in the presence of detergent-lysed target cells alone.
The subject of a further assay is JIMT-1 breast xenografts. The following applies: even at 6 mg/kg, IV Q4dx4.
Assay [6] deals with 37622 patient-derived xenografts. Conditions: 10 mg/kg, IV Q4dx4.
Procedure: as §4
Several ADCs were tested in patient-derived Non-Small Cell Lung Cancer xenograft model of 37622 obtained in accordance with appropriate consent procedures. The 37622 patient-derived xenografts were subcutaneously passaged in vivo as fragments from animal to animal in nude (Nu/Nu) female mice. When the tumors reached a volume of 150 to 300 mm^3, they were staged to ensure uniformity of the tumor size among various treatment groups.
Where [7] appears, read: read-out: Sensitivity to free payload (IC50), N87-T-DM1_Ms2.
Setting [8] is: read-out: Sensitivity to free payload (IC50), N87-T-DM1_Ms7.
Where [9] appears, read: read-out: Sensitivity to free payload (IC50), N87-T-DM1_Ms17.

Procedure for JIMT-1 breast xenografts: as §4
To generate xenografts, nude (Nu/Nu) female mice were implanted subcutaneously with 5×10^6 JIMT-1 cells (DSMZ # ACC-589) in 50% Matrigel (BD Biosciences). When the tumors reached a volume of 200 to 250 mm^3, the tumors were staged to ensure uniformity of the tumor mass among various treatment groups.
Procedure for N87 gastric xenografts: as §4
When the tumors reached a volume of 250 to 450 mm^3, the tumors were staged to ensure uniformity of the tumor mass among various treatment groups.
Procedure for N87 tumors: Mice were injected subcutaneously in the right flank with suspensions of either N87 or N87-TM cells (7.5×10^6 cells per injection, with 50% Matrigel). Mice were randomized into study groups when tumors reached ˜0.3 g (˜250 mm^3). […] Tumors were measured weekly and mass calculated as volume=(width×width×length)/2. Time-to-event analysis (tumor doubling) was conducted and significance evaluated by Log-rank (Mantel-Cox) test.
Procedure for N87 xenografts: Tumors were measured twice per week or weekly and mass calculated as volume=(width×width×length)/2.

Regarding `CC[C@H](C)[C@@H]([C@@H](CC(=O)N1CCC[C@H]1[C@H](OC)[C@@H](C)C(=O)N[C@@H](Cc1ccccc1)c1nccs1)OC)N(C)C(=O)[C@@H](NC(=O)C(C)(C)N)C(C)C` [Aur-0101] (H-[Aib]V[Dil][Dolaproine]-Doe), the IC50 with parental N87 cells came to 0.5 nM; in assay [1] (setting [7]), 0.4 nM; in assay [1] (setting [8]), 0.6 nM; in assay [1] (setting [9]), 0.28 nM.

Turning to `COc1cc2cc(c1Cl)N(C)C(=O)C[C@H](OC(=O)[C@H](C)N(C)C(=O)CCS)[C@]1(C)O[C@H]1[C@H](C)[C@@H]1C[C@@](O)(NC(=O)O1)[C@H](OC)/C=C/C=C(\C)C2` [DM1], the “sensitivity of N87-TM cells (in words)” value with N87-TM cells was “retained sensitivity”.

Turning to `CC[C@H](C)[C@@H]([C@@H](CC(=O)N1CCC[C@H]1[C@H](OC)[C@@H](C)C(=O)N[C@@H](Cc1ccccc1)c1nccs1)OC)N(C)C(=O)[C@@H](NC(=O)C(C)(C)N)C(C)C` [compound 0101, 2-methylalanyl-N-[(3R,4S,5S)-3-methoxy-1-{(2S)-2-[(1R,2R)-1-methoxy-2-methyl-3-oxo-3-{[(1S)-2-phenyl-1-(1,3-thiazol-2-yl)ethyl]amino}propyl]pyrrolidin-1-yl}-5-methyl-1-oxoheptan-4-yl]-N-methyl-L-valinamide] (H-[Aib]V[Dil][Dolaproine]-Doe), in assay [1], the “sensitivity of cells relapsed from T-DM1 treatment (in words)” value (“sensitivity of cells relapsed” below) is recorded as “surprisingly sensitive; also recorded: not resistant”. For the same molecule, the “sensitivity of N87-TM cells (in words)” value with N87-TM cells is reported as “retained sensitivity”.

Turning to `COc1cccc2c1C(=O)c1c(O)c3c(c(O)c1C2=O)C[C@@](O)(C(=O)CO)C[C@@H]3O[C@H]1C[C@H](N)[C@H](O)[C@H](C)O1` [doxorubicin], the IC50 in the assay with parental N87 cells is 48 nM; in assay [1] (setting [7]) it was 46 nM; in assay [1] (setting [8]), 79 nM; in assay [1] (setting [9]), 34 nM. Also, the “sensitivity of cells relapsed” value in assay [1] was “No resistance”. Moreover, the “sensitivity of N87-TM cells (in words)” value in the assay with N87-TM cells was “lack of cross-resistance”.

Regarding `CC(=O)O[C@H]1C(=O)[C@@]2(C)[C@H]([C@H](OC(=O)c3ccccc3)[C@]3(O)C[C@H](OC(=O)[C@H](O)[C@@H](NC(=O)c4ccccc4)c4ccccc4)C(C)=C1C3(C)C)[C@]1(OC(C)=O)CO[C@@H]1C[C@@H]2O` [paclitaxel], in the assay on N87-TM cells, the “sensitivity of N87-TM cells (in words)” value was “lack of cross-resistance”.

Consider T-DM1, for which the IC80 with N87 cells is roughly 10 nM. For the same molecule, in assay [2], the “tumor growth compared to vehicle” value was “no appreciable difference in tumor growth as compared to vehicle treated tumors”. Further, in the assay on N87 tumors, the “mice in which tumor doubling was prevented for at least 60 days” value was greater than 50%. For the same molecule, the “sensitivity of cells relapsed” value in assay [1] was “resistant”. In addition, the “location of the majority of pHH3 positive tumor cells” value in assay [3] is given as “located near the ADC”. Besides, the tumor response entry in the assay with N87 gastric xenografts (10 mg/kg) was “complete regression of tumors”; in the assay on N87 gastric xenografts (1 and 3 mg/kg), “delayed tumor growth”; in [4], “ineffective”; in the assay with JIMT-1 breast xenografts, “inactive”; in assay [6], “only provided some therapeutic benefit”. Besides, the “mice that responded to initial T-DM1 treatment” value in the assay with N87 xenografts is 17 out of 20. Moreover, the “ADCC activity (in words)” value in assay [5] is reported as “conform the reported ADCC activities”.
